For the test, the target named is T1, N-acylethanolamine-hydrolyzing acid amidase (NAAA) (Homo sapiens, UniProt Q02083).
T1 construct: human recombinant NAAA stably expressed in HEK-293 cells (12000 × g membrane fraction)
T1 sequence (Q02083 29-125): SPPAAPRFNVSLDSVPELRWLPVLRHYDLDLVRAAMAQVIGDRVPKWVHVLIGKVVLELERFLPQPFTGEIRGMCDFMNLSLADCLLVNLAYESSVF
T1 sequence (Q02083 126-359): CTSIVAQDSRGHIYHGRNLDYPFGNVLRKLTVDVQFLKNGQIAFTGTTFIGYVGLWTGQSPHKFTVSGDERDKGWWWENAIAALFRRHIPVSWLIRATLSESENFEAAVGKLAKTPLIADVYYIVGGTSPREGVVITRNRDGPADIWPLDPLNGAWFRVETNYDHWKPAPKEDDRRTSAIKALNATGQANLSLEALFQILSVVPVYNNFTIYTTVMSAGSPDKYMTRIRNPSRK
Kind of test: [3H]-PEA hydrolysis assay in membranes of HEK-293 cells overexpressing human NAAA, pH […]. Format: cell-based. The following applies: HEK293.

SMILES strings stand for the structures.

`CCCCCCCCCCCCCCCC1=NCCO1` [PEA-OXA, 2-Pentadecyl-2-oxazoline]: testing at 50 µM gave an inhibition of 75%.
